Laboratory results published in patent US6534640B1, “Methods and compositions to alter the cell surface expression of phosphatidylserine and other clot-promoting plasma membrane phospholipids” (Blood Center Research Foundation, priority 1996, dated 2003).
“Also recorded” adds a separate entry of the source.

Columns and labels:
[1] = system: human cell lines (Raji, HL60, Dami, HEL, W9, Jurkat, Molt-4, K562); test: Measurement of cell surface PS (FVa light chain binding, flow cytometry) in human cell lines after calcium ionophore; assay type: cell-based; settings: 2 μM A23187, 1.2 mM free Ca2+
Description: Measurement of cell surface PS. Calcium ionophore-induced exposure of PS on the surface of all cell lines analyzed was detected by the specific binding of coagulation factor Va (light chain) as previously described (P. J. Sims, et al., J. Biol. Chem. 263:18205-18212, 1988; H. Kojima, et al., J. Clin. Invest. 94:2237-2243, 1994). Briefly, cells were washed twice to remove serum proteins and suspended (2×10^6 cells/ml) at 37° C. in RPMI 1640 supplemented with 0.1% BSA, 20 mM HEPES, and adjusted to 1.2 mM free [Ca^2+]. At time=0 A231.87 (0 or 2 μM final concentration) was added from 1 mM stock solution in DMSO, and at times indicated in figure legends, the reaction was stopped by addition of 6 mM EGTA. PS exposed on the cell surface at each time point was detected by incubating (10 minutes, room temperature) 50 μl of the cell suspension with […] FVa, followed by 10 μg/ml anti-FVa, to detect the cell-bound FVa light chain. After staining with 10 μg/ml Tri-Color conjugated goat anti-mouse IgG (CALTAG Laboratories, Burlingame, Calif.), single-cell fluorescence was quantitated by flow cytometry (FL3 channel, FACScan, Becton Dickinson Immunocytometry Systems). Use of Tri-Color conjugate to detect cell-bound FVa enabled simultaneous measurement of cell-associated GFP fluorescence in cell lines transformed with the pEGFP-C2 expression plasmid (fluorescence of GFP detected in FL1 channel). In experiments in which cell lysis was monitored by uptake of propidium iodide, cells were stained for bound FVa with FITC-conjugate of goat anti-mouse IgG (FL1 channel) substituting for Tri-Color conjugate, and propidium iodide was detected in FL3 channel. Propidium iodide (0.5 μg/ml) was added immediately before dilution for flow cytometry.
FIG. 8 depicts western blot analysis of PL scramblase in various human cell lines. Constitutive expression of PL scramblase was analyzed in the human cell lines indicated. […] At times shown (abscissa), EGTA was added and cells analyzed for surface exposed PS as detected by cell-bound FVa light chain (see Materials and Methods). […]

[2] = molecular target: T1, human erythrocyte PL scramblase (Homo sapiens, UniProt O15162); test: Treatment with hydroxylamine, then reconstitution into proteoliposomes and PL scramblase activity assay (NBD-PC); assay type: biochemical; settings: 1 M hydroxylamine, 1 hour, room temperature, neutral pH; assay in 2 mM Ca2+, 3 hours
T1 construct: PL scramblase purified from human erythrocytes; from tissue; host or cells: human erythrocyte ghost membranes
T1 sequence (O15162 1-318): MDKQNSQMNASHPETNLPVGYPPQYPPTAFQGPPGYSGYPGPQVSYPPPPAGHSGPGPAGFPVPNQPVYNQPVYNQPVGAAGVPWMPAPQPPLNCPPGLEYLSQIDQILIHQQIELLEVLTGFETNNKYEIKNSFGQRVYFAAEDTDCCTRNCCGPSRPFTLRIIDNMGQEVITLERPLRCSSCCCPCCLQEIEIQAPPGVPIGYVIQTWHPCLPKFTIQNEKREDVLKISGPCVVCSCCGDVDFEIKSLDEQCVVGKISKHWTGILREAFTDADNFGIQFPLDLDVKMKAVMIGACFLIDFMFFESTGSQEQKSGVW
Description: Treatment with Hydroxylamine. PL scramblase was incubated 1 hour room temperature in 1 M hydroxylamine, 25 mM octylglucoside, 1 M Tris-HCl at pH 7.4. Match control samples of the protein were identically incubated under these conditions, omitting hydroxylamine. After incubation, samples were dialyzed and reconstituted into PL proteoliposomes for assay of PL scramblase activity.
Membrane reconstitution and assay. PL scramblase was reconstituted into proteliposomes and activity determined as previously described(F. Bassé, et al., supra, 1996; J. G. Stout, et al, supra, 1997).
FIG. 11 illustrates inactivation of PL scramblase by hydroxylamine. Purified human erythrocyte PL scramblase was incubated 1 hour, room temperature, in the presence of 50 mM octylglucoside, 1M TrisHCl, and either 0 (control) or 1M (hydroxylamine) hydroxylamine at pH 7.2. Untreated refers to sample maintained in low ionic strength sample buffer at 4° C. . Each sample was then dialyzed and reconstituted into proteoliposomes for assay of PL scramblase activity using NBD-PC as detailed in Bassé, et al., supra, 1996 with modifications of Stout, et al., supra, 1997. Ordinate indicates percent of total NBD-PC flipped during 3 hours. Incubation was in 2 mM Ca^2+, with correction for background measured in 0.1 mM EGTA. The error bars denote mean±SD, n=7. Combined data of three independent experiments performed on different days.

PL scramblase [3] = molecular target: T2, PL scramblase (Homo sapiens, UniProt O15162); settings: cited from earlier work
T2 sequence (O15162 1-318): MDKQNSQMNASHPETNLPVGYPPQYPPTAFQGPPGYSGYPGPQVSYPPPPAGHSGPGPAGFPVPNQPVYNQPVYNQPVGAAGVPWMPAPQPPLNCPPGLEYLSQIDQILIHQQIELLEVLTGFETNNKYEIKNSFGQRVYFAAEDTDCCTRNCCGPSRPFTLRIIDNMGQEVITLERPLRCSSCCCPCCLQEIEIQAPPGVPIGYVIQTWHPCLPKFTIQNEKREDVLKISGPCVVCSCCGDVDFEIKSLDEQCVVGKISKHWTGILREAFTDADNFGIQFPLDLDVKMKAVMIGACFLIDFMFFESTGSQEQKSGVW

Raji cells = test: Prothrombinase assay of transfected Raji cells; assay type: cell-based, human; settings: transformed Raji cells, 2 μM A23187, vs clones expressing GFP alone
Description: Prothrombinase Assay. Prothrombinase activity of Raji cells was determined by modification of methods previously described for platelets, using the chromogenic thrombin substrate S2238 (P. J. Sims, et al., supra, 1988). Briefly, 1×10^5 Raji cells (transfected with either pEGFP-C2 or pEGFP-C2-PL scramblase) were suspended in 200 μl HBSS containing 1% BSA in the presence of 2 nM FVa, 1.4 μM prothrombin 2.5 mM CaCl2, and 4 μM dansylarginine-N-(3-ethyl-1,5-pentanediyl)amide (to inhibit feed-back activation by thrombin), and incubated at 37° C. Ca^2+-ionophore A23187 (2 μM), or DMSO (as solvent control) was added, and prothrombin conversion was initiated by addition of 2 nM Fxa. Thrombin generation was stopped after 2 minutes by dilution into 10 mM EGTA and samples were stored on ice. Aliquots were transferred to a 96-well plate, and thrombin generated was assayed in TBS containing 1% BSA in presence of 150 μM S2238 by monitoring time-dependent changes in absorbance at 405 nm using a Thermomax plate reader (Molecular Devices, Sunnyvale, Calif.). Thrombin activity was calculated using purified thrombin as standard.

PL scramblase [4] = molecular target: T2, PL scramblase; test: PL scramblase activity: Ca2+-dependent transbilayer movement of NBD-PC in reconstituted PC/PS proteoliposomes; assay type: biochemical; parameters: PCR was performed on a full-length clone using the primers; made in house; host or cells: E. coli TB1 (pMAL-C2)
Description: Reconstitution of PL scramblase or scramblase fusion protein into proteoliposomes. Reconstitution and functional activity were performed essentially as previously described (F. Bassé, et al., J. Biol. Chem. 271:17205-17210, 1996; J. G. Stout, et al., J. Clin. Invest. 99:2232-2238, 1997). Briefly, a mixture of PC and PS (9:1 molar ratio) was dried under a stream of nitrogen and resuspended in 100 mM Tris, 100 mM KCl, 0.1 mM EGTA, pH 7.4 (Tris buffer). Protein samples to be reconstituted were added to the liposomes at a final lipid concentration of 4 mg/ml in the presence of 60 mM OG, and dialyzed overnight at 4° C. against 200 vol of Tris buffer containing 1 g/L Bio-Beads SM-2. To liberate PL scramblase from MBP, the proteoliposomes were incubated 3 h at room temperature in the presence of 1/40 (w/w) factor Xa. The digestion was terminated by addition of 100 μM Glu-Gly-Arg chloromethyl ketone. Completeness of the digest was monitored by SDS-PAGE. […]
PL Scramblase activity. Scramblase activity was measured as previously described (F. Bassé, et al., supra, 1996; J. G. Stout, et al., supra, 1997 and in U.S. Ser. No. 08/790,186). […] Proteoliposomes were diluted 25-fold in Tris buffer containing 4 mM EGTA and transferred to a stirred fluorescence cuvet at 23° C. Initial fluorescence was recorded (SLM Aminco 8000 spectrof luorimeter; excitation at 470 nm, emission at 532 nm), 20 mM dithionite was added, and the fluorescence continuously monitored for a total of 120 seconds. The difference in non-quenchable fluorescence observed in presence vs. absence of CaCl2 Was attributed to Ca^2+-induced change in NBD-PC located in the outer leaflet (F. Bassé, et al., supra, 1996; J. G. Stout, et al., supra, 1997; J. C. McIntyre and R.G. Sleight, Biochemistry 30:11819-11827, 1991). Ionized [Ca^2+] was calculated using FreeCal version 4.0 software (generously provided by Dr. Lawrence F. Brass, University of Pennsylvania, Philadelphia, Pa.). […]

For `CNc1ccc2oc(C[C@H]3O[C@@]4(CC[C@H]3C)O[C@H]([C@H](C)C(=O)c3ccc[nH]3)[C@H](C)C[C@H]4C)nc2c1C(=O)O` [A23187], the “PS mobilized to the cell surface in response to calcium ionophore” value (shortened to “PS mobilized … to calcium ionophore”) ([1]; HEL, W9 and Jurkat cells) was “notably robust responses”, the “PS mobilized … to calcium ionophore” value ([1]; Molt-4 and K562 cells) was “intermediate responses” and the “PS mobilized … to calcium ionophore” value ([1]; Raji, HL60 and Dami cells) was “notably unresponsive”.

With `NO` [hydroxylamine] the “PL scramblase activity after incubation with hydroxylamine” value [2] was “near complete loss; also recorded: nearly complete inactivation”.

In the case of `O[C@H](CS)[C@H](O)CS` (racemic) [dithiothreitol], the “PL scramblase activity after incubation in reducing agents” value (PL scramblase [3]) is given as “retention of normal PL scramblase activity”.

B1: recombinant PL scramblase: Recombinant human PL scramblase (SEQ ID NO:2) expressed in E. coli as MBP fusion, liberated by factor Xa (protein, listed as Homo sapiens)
chain: MDKQNSQMNASHPETNLPVGYPPQYPPTAFQGPPGYSGYPGPQVSYPPPPAGHSGPGPAGFPVPNQPVYNQPVYNQPVGAAGVPWMPAPQPPLNCPPGLEYLSQIDQILIHQQIELLEVLTGFETNNKYEIKNSFGQRVYFAAEDTDCCTRNCCGPSRPFTLRIIDNMGQEVITLERPLRCSSCCCPCCLQEIEIQAPPGVPIGYVIQTWHPCLPKFTIQNEKREDVLKISGPCVVCSCCGDVDFEIKSLDEQCVVGKISKHWTGILREAFTDADNFGIQFPLDLDVKMKAVMIGACFLIDFMFFESTGSQEQKSGVW
In the case of B1, the “cell capacity to catalyze the prothrombinase reaction upon entry of calcium into the cytosol” value (Raji cells) is reported as “increase”, the PL scramblase activity (PL scramblase [4]; 2 mM CaCl2, mean±SD of three measurements) is reported as 11.76±0.44 % of total NBD-PC flipped and the “Ca2+-dependent PL scramblase activity (transbilayer movement of NBD-PC) in liposomes” value (PL scramblase [4]; PC/PS liposomes, absence or presence of 2 mM CaCl2) is reported as “PL scramblase activity was observed”. For the same molecule, the “specific PL mobilizing activity relative to the endogenous protein purified from the erythrocyte membrane” value (PL scramblase [4]; expressed and purified from E. coli, reconstituted in proteoliposomes) was “approximately 50%”.
